One experiment deals with intraocular pressure. The conditions noted are these: topical application or systemic injection; literature; cited from earlier work.
Experiment [1] deals with T1, cannabinoid receptor binding sites (CP 55940 binding sites) (Rattus norvegicus, UniProt P20272).
T1 construct: from tissue; host or cells: rat brain membranes (inferred from the cited Devane et al. 1988)
The conditions noted are these: result in words, literature (Devane et al.), radio-labelled CP 55940; natural and synthetic cannabinoids; cited from earlier work.

The target in the next experiment is T2, cannabinoid receptor (Mus musculus, UniProt P47746).
T2 construct: mouse vasa deferentia (MVD) preparation in vitro; from tissue; host or cells: mouse vas deferens
As to the kind of experiment: mouse vas deferens (MVD) test, inhibition of contractions in vitro. Format: cell-based. The conditions noted are these: considered active at IC50 of 5.0 μM or less, read-out: MVD IC50 (inhibitory concentration which produces 50% of the maximum response). The text has this: (§1) Med. Assoc. 217, 1392 (1971)]. […] Opth. 7, 921-923 (1975); Green and Pederson, Effect of delta-9 Tetrahydrocannabinol on Aqueous Dynamics and Ciliary Body Permeability in the Rabbit Eye., Exptl. Eye Research 15, 499-507 (1973); Colasanti, Craig and Allara, Intraocular Pressure, Ocular Toxicity and Neurotoxicity after Administration of Cannabinol or Cannabigerol, Exptl. Eye Research 39, 252-259 (1984)]. Similarly, synthetic cannabinoids also reduce intraocular pressure [Green, Symunds, Oliver and Elijah, Intraocular Pressure Following Systemic Administration of Cannabinoids., Curr. Eye Research 2, 247-253 (1982); Tiedeman, Shields, Weber, Crow, Coccetto, Harris and Howes, Ophthalmology, 88, 270-277 (1981); Colasanti et al., supra]. […] 34, 605-613 (1988)]. Natural and synthetic cannabinoids and representative examples of the compounds of the present invention, bind to CP 55940 binding sites. […] It is believed that agonist activity at the cannabinoid receptor mediates the anti-glaucoma actions of cannabinoids, and that agonist activity at this receptor correlates with ocular pressure lowering actions in man.
The 3-R3 -4-arylcarbonyl-1-[(4-morpholinyl)-lower-alkyl]-1H-indoles of formula I were tested in the mouse vas deferens test and the CP 55490 binding assay. The results, expressed as the IC50 in μM (the inhibitory concentration which produces 50% of the maximum response), are given in the following table, the compounds being identified by the example number above where their preparations are described.

Experiment [2] concerns the target T1, cannabinoid receptor binding sites (CP 55940 binding sites). Nature of the experiment: CP 55940 binding assay (given "CP 55490 [sic] binding assay" in the source).
Text: as §1
The 3-R3 -4-arylcarbonyl-1-[(4-morpholinyl)-lower-alkyl]-1H-indoles of formula I were tested in the mouse vas deferens test and the CP 55490 binding assay. […]

The values below come from patent US5081122A, “Antiglaucoma compositions containing 4-arylcarbonyl-1-(4-morpholinyl)-lower-alkyl)-1H-indoles and method of use thereof” (Sterling Drug Inc., priority 1990, dated 1992).

Structures are written as SMILES. Where a name gives a salt, the structure may show the parent alone.

T1 sequence (P20272 whole entry): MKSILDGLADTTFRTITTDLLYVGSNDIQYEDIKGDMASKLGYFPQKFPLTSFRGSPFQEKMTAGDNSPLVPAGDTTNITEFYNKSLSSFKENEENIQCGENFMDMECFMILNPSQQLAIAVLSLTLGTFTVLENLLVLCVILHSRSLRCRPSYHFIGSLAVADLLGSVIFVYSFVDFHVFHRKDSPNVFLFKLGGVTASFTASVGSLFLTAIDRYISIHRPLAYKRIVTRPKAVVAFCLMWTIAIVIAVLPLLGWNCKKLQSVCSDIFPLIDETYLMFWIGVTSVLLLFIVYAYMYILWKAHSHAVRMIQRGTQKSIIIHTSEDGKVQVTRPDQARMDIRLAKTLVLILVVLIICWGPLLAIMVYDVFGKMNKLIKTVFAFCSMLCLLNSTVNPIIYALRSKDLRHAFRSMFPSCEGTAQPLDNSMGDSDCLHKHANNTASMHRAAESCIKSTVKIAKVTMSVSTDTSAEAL
T2 sequence (P47746 whole entry): as the sequence (P20272 whole entry) above, with E95D counted along it

For `CCCCCc1cc(O)c2c(c1)OC(C)(C)C1CCC(C)=CC21` (single isomer, unassigned) [delta-9 tetrahydrocannabinol], in the experiment on intraocular pressure, the intraocular pressure entry is reported as “reduces intraocular pressure”.
As to `CCCCCCC(C)(C)c1ccc([C@@H]2C[C@H](O)CC[C@H]2CCCO)c(O)c1` [CP 55940, 4-(1,1-dimethylheptyl)-2,3'-dihydroxy-6'alpha-(3-hydroxypropyl)-1',2',3',4',5',6'-hexahydrobiphenyl], the “binding to CP 55940 binding sites / cannabinoid receptor” value in experiment [1] was “binds in a specific and saturable manner”.
With `COc1ccc(C(=O)c2cccc3c2ccn3CCCN2CCOCC2)cc1` [Example 1B, 4-(4-methoxybenzoyl)-1-[3-(4-morpholinyl)propyl]-1H-indole hydrochloride], the IC50 at cannabinoid receptor was determined as 33 nM.
Still for that read-out and setting: under `O=C(c1cccc2ccccc12)c1cccc2c1ccn2CCN1CCOCC1` [Example 1C, 1-[2-(4-morpholinyl)ethyl]-4-(1-naphthylcarbonyl)-1H-indole p-toluenesulfonate hydrate 3:1] stands 3 nM.
On to `O=C(c1ccc2ccccc2c1)c1cccc2c1ccn2CCN1CCOCC1` [Example 1D, 4-(2-naphthylcarbonyl)-1-[2-(4-morpholinyl)ethyl]-1H-indolehydrochloride], for which the figures for the IC50 (on cannabinoid receptor; in experiment [2]) were 163 nM and 363 nM, respectively.
Consider `COc1ccc(C(=O)c2cccc3c2ccn3CCN2CCOCC2)cc1` [Example 1A, 4-(4-methoxybenzoyl)-1-[2-(4-morpholinyl)ethyl]-1H-indole hydrochloride], for which the IC50 was 76 nM on cannabinoid receptor and 444 nM in experiment [2].
As to `COc1ccc(C(=O)c2cccc3c2c(C)cn3CCN2CCOCC2)cc1` [Example 1E, 4-(4-methoxybenzoyl)-3-methyl-1-[2-(4-morpholinyl)ethyl)-1H-indole hydrochloride], the IC50 on cannabinoid receptor is 5000 nM.
